Where two headings read alike, the source gives them in different places.
Tests used:
[1] = molecular target: GST-Syk Full Protein (human) (Homo sapiens, UniProt P43405); assay: Syk kinase inhibition test (HTRF method); assay type: biochemical; settings: read-out: sykHTRF ave IC50
Procedure, shortened: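 Human GST-Syk full-length (6.4 nM) phosphorylated biotin-EDPDYEWPSA-NH2 (250 nM) with 100 μM ATP in HEPES pH 7.0/MgCl2 buffer, 2% DMSO, 30 min at room temperature. EDTA stop, then HTRF detection (streptavidin-XL665, Eu anti-phosphotyrosine) after 1 h; 665/620 ratio read.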

[2] = test system: cultured human mast cells; assay: Degranulation inhibition test using cultured human mast cells (IgE cross-linking, β-Hexosaminidase release); assay type: cell-based; settings: Mast cell, cultured human mast cells, read-out: human degranulation ave. IC50
Procedure, shortened: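 CD34+ cord-blood cells cultured ≥8 weeks with SCF/IL-6/IL-3; FcεRI primed 5 days with rhIL-4 (1 ng/mL) and hIgE (0.5 μg/mL). Compound (0.1% DMSO) preincubated 10 min at 37 °C, then anti-IgE (final 10 μg/mL) 30 min; released β-hexosaminidase read at 405 nm versus total lysate, IC50 (M).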

[3] = HTRF, 100 μM ATP, 30 min room temperature, average
[4] = anti-hIgE stimulation, β-Hexosaminidase index, average

IC50 ([1]; Tables 1-x, compounds A) [µM] | IC50 ([2]; Tables 1-x, compounds A) [µM] | IC50 [1, 3] [µM] | IC50 [2, 4] [µM] | SMILES
0.1 to 1 | 0.1 to 1 |  |  | Cc1ccnc(Nc2cccc(-c3cnc(CN4C[C@H](NCc5ccccc5)[C@@H](O)C4)s3)n2)c1 [Compound A-400]
> 1 | 0.1 to 1 |  |  | Cc1ccnc(Nc2cccc(-c3cnc(CN4CCCCC4=O)s3)n2)c1 [Compound A-401]
> 1 | > 1 |  |  | CNC(=O)CN1C(=O)OC[C@H]1c1ncc(-c2cccc(Nc3cc(C)ccn3)n2)s1 [Compound A-402]
> 1 | > 1 |  |  | Cc1ccnc(Nc2cccc(-c3cnc(N4CCN(C(=O)OC(C)(C)C)CC4)s3)n2)c1 [Compound A-403]
> 1 | > 1 |  |  | Cc1ccnc(Nc2cccc(-c3cnc([C@@H]4COC(=O)N4CC(=O)N4C[C@@H](O)[C@@H](O)C4)s3)n2)c1 [Compound A-404]
0.1 to 1 | 0.1 to 1 |  |  | Cc1ccnc(Nc2cccc(-c3cnc([C@@H]4CN(C)C(=O)O4)s3)n2)c1 [Compound A-405]
> 1 | > 1 |  |  | Cc1ccnc(Nc2cccc(-c3cnc([C@@H]4COC(=O)N4CC(=O)O)s3)n2)c1 [Compound A-407]
> 1 | > 1 |  |  | Cc1ccnc(Nc2cccc(-c3cnc([C@@H]4COC(=O)N4CC(=O)N(C)C)s3)n2)c1 [Compound A-408]
< 0.1 | < 0.1 |  |  | Cc1ccnc(Nc2cccc(-c3cnc([C@@H]4CNC(=O)O4)s3)n2)c1 [Compound A-409, (S)-5-{5-[6-(4-methylpyridin-2-ylamino)pyridin-2-yl]thiazol-2-yl}oxazolidin-2-one]
0.1 to 1 | < 0.1 |  |  | Cc1ccnc(Nc2cccc(-c3cnc(N4CCN(C=O)CC4)s3)n2)c1 [Compound A-410]
> 1 | > 1 |  |  | CC(=O)N[C@H]1CN(C(=O)COCc2ncc(-c3cccc(Nc4cc(C)ccn4)n3)s2)C[C@@H]1O [Compound A-411]
0.1 to 1 | 0.1 to 1 |  |  | Cc1ccnc(Nc2cccc(-c3cnc(N4CCN(S(C)(=O)=O)CC4)s3)n2)c1 [Compound A-412]
0.1 to 1 | 0.1 to 1 |  |  | Cc1ccnc(Nc2cccc(-c3cnc(N4CCN(C(=O)C5CCC(O)CC5)CC4)s3)n2)c1 (stereo not shown) [Compound A-413]
0.1 to 1 | 0.1 to 1 |  |  | CC(=O)N[C@H]1CN(Cc2ncc(-c3cccc(Nc4cc(C)ccn4)n3)s2)C[C@@H]1O [Compound A-414]
0.1 to 1 | 0.1 to 1 |  |  | Cc1ccnc(Nc2cccc(-c3cnc(CN4C(=O)CNCC4=O)s3)n2)c1 [Compound A-415]
< 0.1 | 0.1 to 1 |  |  | Cc1ccnc(Nc2cccc(-c3cnc(N4CCOCC4)s3)n2)c1 [Compound A-417, N-(4-methylpyridin-2-yl)-N-[6-(2-morpholin-4-ylthiazol-5-yl)pyridin-2-yl]amine]
0.1 to 1 | 0.1 to 1 |  |  | Cc1ccnc(Nc2cccc(-c3cnc(N4CCSCC4)s3)n2)c1 [Compound A-418]
< 0.1 | 0.1 to 1 |  |  | CC(=O)N1CCN(c2ncc(-c3cccc(Nc4cc(C)ccn4)n3)s2)CC1 [Compound A-419, 1-(4-{5-[6-(4-methylpyridin-2-ylamino)pyridin-2-yl]thiazol-2-yl}piperazin-1-yl)ethanone]
0.1 to 1 | > 1 |  |  | Cc1ccnc(Nc2cccc(-c3cnc(N4CCC(C(=O)N5CCC(O)CC5)CC4)s3)n2)c1 [Compound A-420]
< 0.1 | 0.1 to 1 |  |  | Cc1ccnc(Nc2cccc(-c3cnc(N4CCN(S(N)(=O)=O)CC4)s3)n2)c1 [Compound A-421, 4-{5-[6-(4-methylpyridin-2-ylamino)pyridin-2-yl]thiazol-2-yl}piperazine-1-sulfonamide]

IC50 ([1]; Tables 1-x, compounds A) [µM] | IC50 ([2]; Tables 1-x, compounds A) [µM] | IC50 [1, 3] [µM] | IC50 [2, 4] [µM] | SMILES
< 0.1 | 0.1 to 1 |  |  | COc1ccnc(Nc2cccc(-c3cnc(N4CCOCC4)s3)n2)c1 [Compound A-422, N-(4-methoxypyridin-2-yl)-N-{6-[2-(morpholin-4-yl)thiazol-5-yl]pyridin-2-yl}amine]
< 0.1 | 0.1 to 1 |  |  | Cc1ccnc(Nc2cccc(-c3cnc(N4C[C@@H](O)[C@@H](O)C4)s3)n2)c1 [Compound A-423, (3R,4S)-1-{5-[6-(4-methylpyridin-2-ylamino)pyridin-2-yl]thiazol-2-yl}pyrrolidine-3,4-diol]
 |  | < 0.1 | 0.1 to 1 | CC(=O)N(C)c1ncc(-c2cccc(Nc3cc(C)ccn3)n2)s1 [Compound A-424, N-methyl-N-{5-[6-(4-methylpyridin-2-ylamino)pyridin-2-yl]thiazol-2-yl}acetamide]
 |  | < 0.1 | 0.1 to 1 | Cc1ccnc(Nc2cccc(-c3sc(N4CCOCC4)nc3C)n2)c1 [Compound A-425, N-[6-(4-methyl-2-morpholin-4-ylthiazol-5-yl)pyridin-2-yl]-N-(4-methylpyridin-2-yl)amine]
 |  | < 0.1 | 0.1 to 1 | CNc1ncc(-c2cccc(Nc3cc(C)ccn3)n2)s1 [Compound A-426, N-methyl-N-{5-[6-(4-methylpyridin-2-ylamino)pyridin-2-yl]thiazol-2-yl}amine]
 |  | < 0.1 | < 0.1 | CNC(=O)N1CCN(c2ncc(-c3cccc(Nc4cc(C)ccn4)n3)s2)CC1 [Compound A-427, N-methyl-4-{5-[6-(4-methylpyridin-2-ylamino)pyridin-2-yl]thiazol-2-yl}piperazine-1-carboxamide]
< 0.1 | > 1 |  |  | Cc1ccnc(Nc2cccc(-c3sc(N4CCC(C(N)=O)CC4)nc3C)n2)c1 [Compound A-429, 1-{4-methyl-5-[6-(4-methylpyridin-2-ylamino)pyridin-2-yl]thiazol-2-yl}piperidine-4-carboxamide]
< 0.1 | 0.1 to 1 |  |  | COC1CCN(c2ncc(-c3cccc(Nc4cc(C)ccn4)n3)s2)CC1 [Compound A-431, N-{6-[2-(4-methoxypiperidin-1-yl)thiazol-5-yl]pyridin-2-yl}-N-(4-methylpyridin-2-yl)amine]
< 0.1 | 0.1 to 1 |  |  | Cc1ccnc(Nc2cccc(-c3cnc(N4CCN(C)CC4)s3)n2)c1 [Compound A-432, N-{6-[2-(4-methylpiperazin-1-yl)thiazol-5-yl]pyridin-2-yl}-N-(4-methylpyridin-2-yl)amine]
< 0.1 | < 0.1 |  |  | Cc1ccnc(Nc2cccc(-c3cnc(N4CCC(O)CC4)s3)n2)c1 [Compound A-433, 1-{5-[6-(4-methylpyridin-2-ylamino)pyridin-2-yl]thiazol-2-yl}piperidin-4-ol]
0.1 to 1 | > 1 |  |  | Cc1ccnc(Nc2cccc(-c3cnc(N4CCC(C(=O)N(C)C)CC4)s3)n2)c1 [Compound A-434]
0.1 to 1 | > 1 |  |  | COCCNC(=O)C1CCN(c2ncc(-c3cccc(Nc4cc(C)ccn4)n3)s2)CC1 [Compound A-435]
< 0.1 | 0.1 to 1 |  |  | CNC(=O)C1CCN(c2ncc(-c3cccc(Nc4cc(OC)ccn4)n3)s2)CC1 [Compound A-436, N-methyl-1-{5-[6-(4-methoxypyridin-2-ylamino)pyridin-2-yl]thiazol-2-yl}piperidine-4-carboxamide]
< 0.1 | 0.1 to 1 |  |  | Cc1ccnc(Nc2cccc(-c3sc(N4CCN(C=O)CC4)nc3C)n2)c1 [Compound A-437, 4-{4-methyl-5-[6-(4-methylpyridin-2-ylamino)pyridin-2-yl]thiazol-2-yl}piperazine-1-carbaldehyde]
< 0.1 | 0.1 to 1 |  |  | COC(=O)N1CCN(c2ncc(-c3cccc(Nc4cc(C)ccn4)n3)s2)CC1 [Compound A-438, methyl 4-{5-[6-(4-methylpyridin-2-ylamino)pyridin-2-yl]thiazol-2-yl}piperazine-1-carboxylic acid methyl ester]
< 0.1 | < 0.1 |  |  | Cc1ccnc(Nc2cccc(-c3cnc(N4CCN(C(=O)CO)CC4)s3)n2)c1 [Compound A-439, 2-hydroxy-1-(4-{5-[6-(4-methylpyridin-2-ylamino)pyridin-2-yl]thiazol-2-yl}piperazin-1-yl)ethanone]
< 0.1 | 0.1 to 1 |  |  | CCC(=O)N1CCN(c2ncc(-c3cccc(Nc4cc(C)ccn4)n3)s2)CC1 [Compound A-440, 1-(4-{5-[6-(4-methylpyridin-2-ylamino)pyridin-2-yl]thiazol-2-yl}piperazin-1-yl)propan-1-one]
< 0.1 | 0.1 to 1 |  |  | Cc1ccnc(Nc2cccc(-c3cnc(N4CCN(C(=O)N(C)C)CC4)s3)n2)c1 [Compound A-441, N,N-dimethyl-4-{5-[6-(4-methylpyridin-2-ylamino)pyridin-2-yl]thiazol-2-yl}piperazine-1-carboxamide]
< 0.1 | 0.1 to 1 |  |  | COc1ccnc(Nc2cccc(-c3cnc(N4CCN(C(C)=O)CC4)s3)n2)c1 [Compound A-442, 1-(4-{5-[6-(4-methoxypyridin-2-ylamino)pyridin-2-yl]thiazol-2-yl}piperazin-1-yl)ethanone]
< 0.1 | 0.1 to 1 |  |  | CC(=O)N1CCN(c2ncc(-c3cccc(Nc4cc(Cl)ccn4)n3)s2)CC1 [Compound A-443, 1-(4-{5-[6-(4-chloropyridin-2-ylamino)pyridin-2-yl]thiazol-2-yl}piperazin-1-yl)ethanone]

SMILES | IC50 ([1]; Tables 1-x, compounds A) [µM] | IC50 ([2]; Tables 1-x, compounds A) [µM] | IC50 [1, 3] [µM] | IC50 [2, 4] [µM]
Cc1ccnc(Nc2cccc(-c3cnc(CN4CCNC(=O)C4)s3)n2)c1 [Compound A-416, 4-{5-[6-(4-methylpyridin-2-ylamino)pyridin-2-yl]thiazol-2-ylmethyl}piperazin-2-one] | < 0.1 | < 0.1 |  | 

Reference: patent US7803801B2, “Aminopyridine compounds having Syk inhibitory activity” (Japan Tobacco, Inc., priority 2005, dated 2010)
